# Results taken from patent publication US20030170309A1, “Pharmaceutical compositions containing polymer and drug assemblies” (priority 2001, published 2003).
# What was measured:
# [1] = Dissolution test of amorphous Drug 1 in PBS with varying HPMCAS-MF concentration; assay type: physicochemical; settings: amorphous Drug 1 10 mg/mL added, PBS 37°C
# Procedure: First, HPMCAS-MF was dissolved in PBS with stirring at 37° C. and 1.5 mL of this solution was placed in a microcentrifuge tube.
# [2] = assay type: physicochemical
# Procedure: To determine the composition of the polymer/drug assemblies, solutions formed from the dispersions of Example 30 and Example 31 in PBS were analyzed using HPLC and NMR, as described in Example 4. […] To measure the free drug concentration using NMR, 2 wt % NaTC/POPC was added to the solution. By measuring the amount of drug that partitioned into NaTC/POPC micelles, the concentration of free drug in PBS was calculated using the equation: […]
# where DM is the concentration of drug in micelles (measured by NMR), Kp is the partition coefficient for drug partitioning between water and micelles (30,000), Df is the free drug concentration in PBS, and VM is the volume ratio occupied by micelles in the PBS solution (cm^3 micelles/cm^3 solution=0.021). […] The amount of polymer contained in the polymer/drug assemblies was calculated by subtracting the free polymer and the polymer in the precipitate from the total polymer added to solution (contained in the solid dispersions). […]
# The dispersions of Examples 30 and 31 were added to PBS with varying amounts of NaTC/POPC, and the concentration of drug in NaTC/POPC micelles was measured by NMR spectroscopy. […]
# The free drug concentration with no micelles present was calculated as follows. […]
# Aqueous solutions formed from the solid dispersion of Example 40 were analyzed using DLS and NMR, as described in Examples 3 and 4. […]
# [3] = Solubility of the drug alone (crystalline or amorphous); settings: for solubility: thermodynamic from solid
# [4] = rats, colloidal solution; cited from earlier work
# [5] = dispersion of YM022 in HPMC and polyoxyethylene hydrogenated castor oil administered to aqueous solution; cited from earlier work
# [6] = HPMCAS-MF 0 mg/mL (amorphous drug alone)
compound,measurement,setting,value
"O=C(N[C@@H](Cc1ccccc1)[C@@H](O)C(=O)N1C[C@@H](O)[C@@H](O)C1)c1cc2cc(Cl)ccc2[nH]1 [Drug 1, 5-chloro-1H-indole-2-carboxylic acid [(1S)-benzyl-3-((3R, 4S)-dihydroxypyrroldin-1-yl-)-(2R)-hydroxy-3-oxypropyl] amide]",HPLC Total Dissolved Drug 1 at 90 min.,[1]; [6],224 µg/mL
same,HPLC Total Dissolved Drug 1 at 1200 min.,[1]; [6],196 µg/mL
same,HPLC Total Dissolved Drug 1 at 90 min.,[1]; HPMCAS-MF 0.5 mg/mL,447 µg/mL
same,HPLC Total Dissolved Drug 1 at 1200 min.,[1]; HPMCAS-MF 0.5 mg/mL,289 µg/mL
same,HPLC Total Dissolved Drug 1 at 90 min.,[1]; HPMCAS-MF 1 mg/mL,487 µg/mL
same,HPLC Total Dissolved Drug 1 at 1200 min.,[1]; HPMCAS-MF 1 mg/mL,203 µg/mL
same,HPLC Total Dissolved Drug 1 at 90 min.,[1]; HPMCAS-MF 5 mg/mL,4928 µg/mL
same,HPLC Total Dissolved Drug 1 at 1200 min.,[1]; HPMCAS-MF 5 mg/mL,1550 µg/mL
same,HPLC Total Dissolved Drug 1 at 90 min.,[1]; HPMCAS-MF 10 mg/mL,7453 µg/mL
same,HPLC Total Dissolved Drug 1 at 1200 min.,[1]; HPMCAS-MF 10 mg/mL,5431 µg/mL
same,HPLC Total Dissolved Drug 1 at 90 min.,[1]; HPMCAS-MF 20 mg/mL,8099 µg/mL
same,HPLC Total Dissolved Drug 1 at 1200 min.,[1]; HPMCAS-MF 20 mg/mL,7451 µg/mL
"CCOC(=O)N1c2ccc(C(F)(F)F)cc2C(N(Cc2cc(C(F)(F)F)cc(C(F)(F)F)c2)C(=O)OC)CC1CC (stereo not drawn) [Drug 2, 4-[(3,5-bis-trifluoromethyl-benzyl)-methoxycarbonyl-amino]-2-ethyl-6-trifluoromethyl-3,4-dihydro-2H-quinoline-1-carboxylic acid ethyl ester]","Kp, partition coefficient for drug partitioning between water and micelles",[2],"30,000"
same,"Drug 2 Concentration, NaTC/POPC Conc. 0 wt %","[2]; crystalline Drug 2, value obtained in a separate experiment",0.01 µg/mL
same,solubility,"[3]; PBS with 2% NaTC/POPC, fassgf or other biorelevant, Solubility of crystalline Drug 2 in 2% NaTC/POPC in PBS, 2% NaTC/POPC in PBS",6 µg/mL
same,solubility,"[3]; PBS, Solubility of the crystalline Drug 2",0.01 µg/mL
same,solubility,"[3]; aqueous solution without micelles, Solubility of Drug 2 in aqueous solution without micelles, crystalline Drug 2, separate experiments",~0.01 µg/mL
same,Solubility of Drug 2 in aqueous solution without micelles,"[3]; crystalline Drug 2, separate experiments",approximately 0.010 μg/mL
"Cc1ncccc1CNC(=O)c1ccc2c(c1)CC[C@@H]1C[C@@](O)(CCC(F)(F)F)CC[C@@]21Cc1ccccc1 [Drug 3, 2-phenanthrenecarboxamide, 4b,5,6,7,8,8a,9,10-octahydro-7-hydroxy-N-[(2-methyl-3-pyridinyl)methyl]-4b-(phenylmethyl)-7-(3,3,3-trifluoropropyl)-, (4bS,7S,8aR)-]",solubility,"[3]; Solubility of Drug 3, crystalline Drug 3",0.004 µg/mL
Cc1cccc(NC(=O)N[C@@H]2N=C(c3ccccc3)c3ccccc3N(CC(=O)c3ccccc3C)C2=O)c1 [YM022],Absorption on oral administration,[4],good absorption
same,Mean diameter of colloidal particles,[5],160 nm
